Experimental findings from US9770452B2, “Quinoxaline derivatives as GPR6 modulators” (Takeda Pharmaceutical Company Limited, priority 2012, dated 2017) are described below.

Counter-ions that a name gives are not always drawn.

T1 sequence (P46095 whole entry): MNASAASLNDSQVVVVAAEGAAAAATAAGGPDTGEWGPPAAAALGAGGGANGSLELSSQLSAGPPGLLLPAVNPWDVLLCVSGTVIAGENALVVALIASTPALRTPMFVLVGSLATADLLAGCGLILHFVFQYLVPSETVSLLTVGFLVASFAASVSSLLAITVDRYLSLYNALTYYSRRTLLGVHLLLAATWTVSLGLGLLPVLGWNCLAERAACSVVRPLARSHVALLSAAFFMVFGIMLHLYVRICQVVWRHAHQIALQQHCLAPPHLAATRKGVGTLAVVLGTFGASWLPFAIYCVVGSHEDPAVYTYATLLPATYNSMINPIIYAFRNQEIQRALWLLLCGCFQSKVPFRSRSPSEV

One assay has as its target T1, GPR6 receptor (Homo sapiens, UniProt P46095).
T1 construct: expressed in transfected cells
The assay is described as follows: Inhibition of cAMP Activity of GPR6 In Vitro Assay (CHO-K1 cells, HTRF cAMP). It counts as cell-based.
Details: not given
As for the experimental part: Inhibition of cAMP Activity of GPR6 In Vitro Assay
This cell based assay measures the ability of compounds to inhibit the constitutive cAMP activity of GPR6 receptor expressed in CHO-K1 cells. CHO cells were stably expressed with GPR6 receptor, whose expression is controlled by a tetracycline inducable element. The cells were cultured in medium containing F12K, 10% FBS, 1% Penn/Strep, 200 ug/mL Hygromycin. GPR6 receptor expression was induced for 20 hrs with 1 μg/ml doxycycline (sigma D9891) in growth media. After addition of doxycycline cells were plated at a density of 250-500 cells per well in half-volume black clear bottom plates (Costar) and place in an incubator (37°, 5% C(O)2) for 20 hours prior to cAMP assays.
Culture media was removed from cells and they were washed with 50 μL of Ringer's Buffer (MgCl2 0.047 mg/mL, NaH2PO4 0.18 mg/mL, Na2HPO4 0.1 mg/mL, KCl 0.34 mg/mL, NaHC(O)3 1.26 mg/mL, D-glucose 1.8 mg/mL, NaCl 7 mg/mL; pH=7.4). Compounds suspended in DMSO were diluted in Ringer's Buffer containing 0.5% fatty acid free BSA and incubated on cells for 45 min at […] and 5% C(O)2. After incubation cells were incubated for 10 min at room temp with Eu-cAMP tracer solution from a Perkin Elmer Lance HTRF UltracAMP assay kit (TRF0264). Then ULight™-anti-cAMP solution from the Lance HTRF kit was added and incubated on a shaker at room temp for 1 hour prior to HTRF detection in a BMG PolarStar Omega.
IC50 curves were generated with a four-parameter logistic equation using GraphPad Prism 5.03.
On the technique in general: In TR-FRET formats the signal depends on donor and acceptor labels being close together.
Consider `COc1ccc(OC2CCN(c3nc4c(N5CCOCC5)nccc4nc3NC3CC3)CC2)c(F)c1` [Cpd 606, N-cyclopropyl-3-(4-(2-fluoro-4-methoxyphenoxy)piperidin-1-yl)-5-morpholinopyrido[3,4-b]pyrazin-2-amine, 2,2,2-trifluoroacetic acid salt], for which the IC50 was 717 nM.

Staying with this assay, now noted: compounds of Compound Table 1; inhibition of constitutive cAMP activity of GPR6 expressed in CHO-K1 cells; approximate IC50; read-out: IC50.
Turning to “(2-(cyclopropylamino)-3-(4-(2-fluoro-4-methoxyphenoxy)piperidin-1-yl)pyrido[3,4-b]pyrazin-7-yl)(4-methylpiperazin-1-yl)methanone [Cpd 603]”, the IC50 was determined as 1020 nM.

For “2-((2,2-difluoroethyl)amino)-3-(4-(2,4-difluorophenoxy)piperidin-1-yl)-N,N-dimethylpyrido[3,4-b]pyrazine-7-carboxamide, 2,2,2-trifluoroacetic acid salt [Cpd 649]”, the IC50 came out at 44 nM.

For the molecule “2-(cyclopropylamino)-3-(4-(2-fluoro-4-methoxyphenoxy)piperidin-1-yl)pyrido[3,4-b]pyrazine-5-carbonitrile, 2,2,2-trifluoroacetic acid salt [Cpd 605]”, the IC50 turned out to be 36 nM.

With “3-(4-(3-chloro-4-fluorobenzyl)piperazin-1-yl)-N-cyclopropylpyrido[3,4-b]pyrazin-2-amine, 2,2,2-trifluoroacetic acid salt [Cpd 315]”, the IC50 was 50 nM.

In the case of “3-(4-(2,4-difluorophenoxy)piperidin-1-yl)-N-isopropylpyrido[3,4-b]pyrazin-2-amine, 2,2,2-trifluoroacetic acid salt [Cpd 620]”, the half-inhibitory concentration (IC50) was 18 nM.

With `O=C(c1cc(Cl)ccc1Cl)N1CCN(c2nc3ccccc3nc2NC2CCCC2)CC1` [Cpd 39, (4-(3-(cyclopentylamino)quinoxalin-2-yl)piperazin-1-yl)(2,5-dichlorophenyl)methanone, 2,2,2-trifluoroacetic acid salt], the 50% inhibitory concentration (IC50) was 6150 nM.

For “N-cyclopropyl-3-(4-((2,4-difluorophenyl)difluoromethyl)piperidin-1-yl)pyrido[3,4-b]pyrazin-2-amine [Cpd 545]”, the half-inhibitory concentration (IC50) was 45 nM.

For “3-(4-(4-chlorobenzyl)piperidin-1-yl)-N-cyclopropylpyrido[3,4-b]pyrazin-2-amine, 2,2,2-trifluoroacetic acid salt [Cpd 424]”, the IC50 is 310 nM.

Regarding “3-(4-((2,4-difluorophenyl)fluoromethyl)piperidin-1-yl)-N-(2-methoxyethyl)pyrido[3,4-b]pyrazin-2-amine, 2,2,2-trifluoroacetic acid salt [Cpd 520]”, the IC50 was 30 nM.

Take “2-(cyclopropylamino)-3-(4-((4-(trifluoromethoxy)phenyl)sulfonyl)piperazin-1-yl)quinoxaline-6-carbonitrile, 2,2,2-trifluoroacetic acid salt [Cpd 283]”: the half-inhibitory concentration (IC50) amounted to 420 nM.

For “N-cyclopropyl-2-(4-(2,4-difluorobenzyl)piperidin-1-yl)pyrido[3,4-b]pyrazin-3-amine, 2,2,2-trifluoroacetic acid salt [Cpd 427]”, the IC50 amounted to 78 nM.

Consider “(1-(2-(cyclopropylamino)pyrido[3,4-b]pyrazin-3-yl)piperidin-4-yl)(3-methoxyphenyl)methanone [Cpd 564]”, for which the IC50 is 11000 nM.

In the case of “3-(4-(2-fluoro-4-methoxybenzyl)piperidin-1-yl)-2-(isopropylamino)pyrido[3,4-b]pyrazine-7-carbonitrile, 2,2,2-trifluoroacetic acid salt [Cpd 636]”, the IC50 was found to be 16 nM.

As to “(6-chloro-2,3-difluorophenyl)(1-(2-(cyclopropylamino)pyrido[3,4-b]pyrazin-3-yl)piperidin-4-yl)methanone, 2,2,2-trifluoroacetic acid salt [Cpd 569]”, the IC50 stood at 62 nM.

Turning to “4-((1-(3-(cyclopropylamino)pyrazino[2,3-d]pyridazin-2-yl)piperidin-4-yl)oxy)-3-fluorophenol [Cpd 623]”, the IC50 came out at 39 nM.

A word on the IC50: it is the midpoint of a concentration-inhibition curve.
